In ChEMBL document CHEMBL5543137, “Design and Synthesis of Novel Ultralong-Acting Peptides as EDP-EBP Interaction Inhibitors for Pulmonary Fibrosis Treatment” (J Med Chem, 2024):
The source made the active and inactive calls. Starred links: 1 amine or outer side, 2 acyl side, 3 side chain; linkers in the order of their positions; H or OH if unused. Non-standard residues stand in square brackets, D forms with d. Residues, ends and D or L forms follow the SMILES beside them. *: point of attachment. C20 diacid = O=C(O)CCCCCCCCCCCCCCCCCCC(=O)*; γGlu = O=C(O)[C@H](CCC(=O)[*:2])N[*:1]; Iva = CC[C@](C)(N)C(=O)O; PEG2 = NCCOCCOCCC(=O)O

Key:
A549 = experiment: Inhibition of EBP signaling pathway in TGFalpha induced human A549 cells assessed as reduction in ERK phosphorylation at 10 uM incubated for 24 hrs by Western blotting analysis; format: cell-based
Mus musculus [1] = experiment: Antifibrotic activity against BLM-induced C57BL/6 mouse pulmonary fibrosis model assessed as reduction in lung inflammation at 150 ug/kg, sc administered for 2 weeks starting from 7 days post BLM induction and measured after 21 days post BLM induction by immunohistochemical staining based assay; format: functional, organism-based; settings: dose 150.0 µg/kg
TC-1 = experiment: Inhibition of EBP signaling pathway in TGFalpha induced mouse TC-1 cells assessed as reduction in ERK phosphorylation at 10 uM incubated for 24 hrs by Western blotting analysis; format: cell-based
Mus musculus [2] = experiment: Antifibrotic activity against BLM-induced C57BL/6 mouse pulmonary fibrosis model assessed as reduction in Timp1 gene expression at 240 ug/kg/day, sc administered for 2 weeks starting from 7 days post BLM induction and measured after 21 days post BLM induction by ScRNA-sequencing analysis; format: functional, organism-based; settings: dose 240.0 µg/kg/day
RAW264.7 = experiment: Induction of cell migration in mouse RAW264.7 cells at 10 uM by DAPI staining based assay; format: functional
Mus musculus [3] = experiment: Antifibrotic activity against BLM-induced C57BL/6 mouse pulmonary fibrosis model assessed as reduction in Des gene expression at 240 ug/kg/day, sc administered for 2 weeks starting from 7 days post BLM induction and measured after 21 days post BLM induction by ScRNA-sequencing analysis; format: functional, organism-based; settings: dose 240.0 µg/kg/day
Mus musculus [4] = experiment: Antifibrotic activity against BLM-induced C57BL/6 mouse pulmonary fibrosis model assessed as reduction in spp1 gene expression at 240 ug/kg/day, sc administered for 2 weeks starting from 7 days post BLM induction and measured after 21 days post BLM induction by ScRNA-sequencing analysis; format: functional, organism-based; settings: dose 240.0 µg/kg/day

CC[C@](C)(NC(=O)[C@@H](NC(=O)CCOCCOCCNC(=O)CCOCCOCCNC(=O)CC[C@H](NC(=O)CCCCCCCCCCCCCCCCCCC(=O)O)C(=O)O)C(C)C)C(=O)NCC(=O)N[C@@H](CO)C(=O)N1CCC[C@H]1C(=O)N[C@@H](CO)C(=O)N[C@@H](C)C(=O)N[C@@H](CCC(N)=O)C(=O)N[C@@H](CCC(=O)O)C(=O)N[C@@H](CCC(=O)O)C(=O)N[C@@H](C)C(=O)N[C@@H](CO)C(=O)N1CCC[C@H]1C(=O)N[C@@H](C)C(N)=O ({C20 diacid-γGlu-PEG2-PEG2}-V[Iva]GSPSAQEEASPA-NH2)
active: inhibition (A549) | Activity (Mus musculus [1]) | inhibition (TC-1) | Activity (Mus musculus [2]) | Activity (RAW264.7) | Activity (Mus musculus [3]) | Activity (Mus musculus [4])
